Measurements published in patent US12220465B2, “Compositions and methods for targeted treatment and imaging of cancer or tumors” (Washington University, priority 2018, dated 2025).

Tests used:
[1] = tested on: malignant MM cells (MM1s and H929); assay: MTT survival assay of malignant MM cells treated with Bortezomib; format: cell-based; conditions: Homo sapiens, 48 hours, read-out: IC50, killing of myeloma cells
Experimental: (§1) Anticancer agents have preferential cytotoxic effects on cancer cells compared to non-malignant cells (such as EPCs). Therefore we tested the effect of BTZ (anti-cancer drug) on the survival of malignant MM cells (MM1s and H929) and on EPCs, in which cells were treated with increasing concentrations of Bortezomib, and the killing effect was evaluated after 48 hours using MTT assay (FIGS. 8A and B). Also EPCs were treated with and without high-dose of BTZ (50 nM) and we measured the in vitro migration of the EPCs towards MM-conditioned media, using a Boyden chamber migration assay, and the number of migrating EPCs was analyzed by flow cytometry (FIG. 8C).

EPCs [2] = assay: MTT survival assay of EPCs treated with agent; format: cell-based; conditions: 48 hours; for effect on survival of EPCs: increasing concentrations
Experimental: as §1
Prodrugs such as TC and BPA are inert agents that are not supposed to have effect by them selves on cancer or normal cell survival, but when activated using positron emission and neutrons, respectively, these agents become active drugs and kill the cell that they reside in and adjacent cells next to it. We tested the effect of TC and BPA (prodrugs) on the survival of EPCs, in which cells were treated with increasing concentrations of these, and the killing effect was evaluated after 48 hours using MTT assay (FIGS. 9A and 10A). […] Also EPCs were treated with and without increasing doses of TC and BPA and we measured the in vitro migration of the EPCs towards MM-conditioned media, using a Boyden chamber migration assay, and the number of migrating EPCs was analyzed by flow cytometry (FIGS. 9C and 10C).
These agents have no cytotoxicity effect, to confirm that we tested the effect of LS-542, (as a model of an imaging agent) on survival of EPCs, in which cells were treated with increasing concentrations of these, and the killing effect was evaluated after 48 hours using MTT assay (FIG. 11A). […] Also EPCs were treated with and without increasing doses of LS-542 and we measured the in vitro migration of the EPCs towards MM-conditioned media, using a Boyden chamber migration assay, and the number of migrating EPCs was analyzed by flow cytometry (FIG. 11C).

EPCs [3] = assay: Boyden chamber migration of agent-treated EPCs towards MM-conditioned media; format: cell-based; conditions: for effect on migration of EPCs to tumor: increasing doses, towards MM-conditioned media
Experimental: as §1
Prodrugs such as TC and BPA are inert agents that are not supposed to have effect by them selves on cancer or normal cell survival, but when activated using positron emission and neutrons, respectively, these agents become active drugs and kill the cell that they reside in and adjacent cells next to it. We tested the effect of TC and BPA (prodrugs) on the survival of EPCs, in which cells were treated with increasing concentrations of these, and the killing effect was evaluated after 48 hours using MTT assay (FIGS. 9A and 10A). And to confirm the loading of EPCs with TC and BPA, we treated the EPCs with increasing doses of TC and BPA, digested the cells with nitric acid, and used ICP-MS to detect the level of Titanium and boron in the EPCs, respectively (FIGS. 9B and 10B). Also EPCs were treated with and without increasing doses of TC and BPA and we measured the in vitro migration of the EPCs towards MM-conditioned media, using a Boyden chamber migration assay, and the number of migrating EPCs was analyzed by flow cytometry (FIGS. 9C and 10C).
These agents have no cytotoxicity effect, to confirm that we tested the effect of LS-542, (as a model of an imaging agent) on survival of EPCs, in which cells were treated with increasing concentrations of these, and the killing effect was evaluated after 48 hours using MTT assay (FIG. 11A). And to confirm the loading of EPCs with LS-542, we treated the EPCs with increasing doses of LS-542, and the amount of labeling was measure by the mean-flurescence intensity of the dye by flow cytometry (FIG. 11B). Also EPCs were treated with and without increasing doses of LS-542 and we measured the in vitro migration of the EPCs towards MM-conditioned media, using a Boyden chamber migration assay, and the number of migrating EPCs was analyzed by flow cytometry (FIG. 11C).

EPCs [4] = conditions: calcein-UV and PI, flow cytometry
Experimental: The effect of Tc on the cell vitality/viability by staining the cells with viability dye (calcein-UV) and propidium iodide (PI) and analyzing by flow cytometry was tested.

| Compound | IC50 [1] | BTZ concentration up to which EPCs are not sensitive (survival) (EPCs [2]) | effect of loading on migration of EPCs towards cancer cells (EPCs [3]; BTZ 50 nM for 2 hrs, MM-conditioned media) | effect on survival of EPCs (EPCs [2]) | effect on migration of EPCs to tumor (EPCs [3]) | effect on migration of EPCs to conditioned MM media (EPCs [3]; same concentration range, up to 150 μM) | concentration up to which Tc is not toxic to EPCs (EPCs [4]) |
| --- | --- | --- | --- | --- | --- | --- | --- |
| CC(C)C[C@H](NC(=O)[C@H](Cc1ccccc1)NC(=O)c1cnccn1)B(O)O [BTZ, Bortezomib] | 5 nM | up to 50 nM | did not affect the migration of EPCs | – | – | – | – |
| N[C@@H](Cc1ccc(B(O)O)cc1)C(=O)O [BPA, 4-Borono-L-phenylalanine] | – | – | – | no effect on the survival | no effect | – | – |
| [Cl-].[Cl-].[Ti+4].c1cc[cH-]c1.c1cc[cH-]c1 [Titanocene] | – | – | – | no effect on the survival | no effect | did not affect the migration of EPCs | up to 150 μM |
